Measured values reported in patent US5441894A, “Device containing a light absorbing element for automated chemiluminescent immunoassays” (Abbott Laboratories, priority 1993, dated 1995).

System: Anti-phencyclidine antibodies
Test: Ion-Capture Competitive Binding Assay For Phencyclidine (PCP) in Urine

## c1ccc(C2(N3CCCCC3)CCCCC2)cc1 [PCP, phencyclidine]
25 ng/mL PCP in urine, Side A
  % Bound: 83.00%
25 ng/mL PCP in urine, Side B
  % Bound: 85.50%
60 ng/mL PCP in urine, Side A
  % Bound: 94.60%
60 ng/mL PCP in urine, Side B
  % Bound: 94.19%
120 ng/mL PCP in urine, Side A
  % Bound: 97.44%
120 ng/mL PCP in urine, Side B
  % Bound: 97.54%
250 ng/mL PCP in urine, Side A
  % Bound: 99.28%
250 ng/mL PCP in urine, Side B
  % Bound: 99.32%
500 ng/mL PCP in urine, Side A
  % Bound: 100.00%
500 ng/mL PCP in urine, Side B
  % Bound: 100.00%
